Measurements published in paper PMC6749586, “Design, Synthesis, and Anticancer Effect Studies of Iridium(III) Polypyridyl Complexes against SGC-7901 Cells” (Molecules, 2019).
Read-outs that look alike come from different tables or passages of the source.

Experiments:
A549 cells = experiment: MTT cytotoxicity assay, A549; assay type: cell-based, human; details: read-out: IC50 toward A549
Excerpt: (§1) The lung carcinoma cell line A549, the cervical cancer cell line HeLa, the esophageal cancer cell line Eca-109, and the human hepatocellular carcinoma cell line BEL-7402 were purchased from the cell bank of the Cell Institute of Sinica Academia Shanghai (Shanghai, China). The gastric adenocarcinoma cell line SGC-7901, the hepatocellular carcinoma cell line HepG2, and the mouse embryonic fibroblast cell line NIH 3T3 were obtained from the Experimental Animal Center of Sun Yat-Sen University (Guangzhou, China). The BEL-7402 and SGC-7901 cell lines were cultured in Roswell Park Memorial Institute Medium (RPMI-1640); and A549, Eca-109, HepG2, and NIH 3T3 cells were grown in Dulbecco’s Modified Eagle’s Medium (DMEM), including 10% fetal bovine serum (FBS), 100 units mL^−1 penicillin/streptomycin mixture, and 2.0 g/L of NaHCO3. Cell passage experiments were performed with trypsin every 2 days to maintain exponential growth. All cells were cultured until they reached logarithmic growth phase, unless specifically noted.
(§2) Cell cytotoxicity following treatment with the iridium(III) complexes was detected by MTT assay. The cells were seeded into 96-well micro-assay culture plates (1 × 10^4 cells per well) and grown overnight in a 5% CO2 incubator at 37 °C. Then, the cell lines were treated with gradient concentrations of the complexes 1–3. After treatment for 48 h, MTT solution (5 mg mL^−1, […]) dissolved in phosphate buffer was added to each well and the cells were further cultured for 4 h. Upon completion of incubation, the solvent was removed and 100 µL/well of buffer containing dimethylformamide (50%) and sodium dodecyl sulfate (20%) was added to dissolve the produced formazan. The absorbance of each well was measured with a microplate reader at a wavelength of 490 nm. The IC50 values were determined from the plots of viability versus concentration used to treat the cells. Three independent experiments were performed to obtain the mean values.

HepG2 cells = experiment: MTT cytotoxicity assay, HepG2; assay type: cell-based, human; details: read-out: IC50 toward HepG2
Excerpt: as §1, §2

SGC-7901 cells [1] = experiment: MTT cytotoxicity assay, SGC-7901; assay type: cell-based, human; details: read-out: IC50 toward SGC-7901
Excerpt: as §1, §2

Eca-109 cells = experiment: MTT cytotoxicity assay, Eca-109; assay type: cell-based, human; details: 48 h, read-out: IC50 toward Eca-109
Excerpt: The lung carcinoma cell line A549, the cervical cancer cell line HeLa, the esophageal cancer cell line Eca-109, and the human hepatocellular carcinoma cell line BEL-7402 were purchased from the cell bank of the Cell Institute of Sinica Academia Shanghai (Shanghai, China). The gastric adenocarcinoma cell line SGC-7901, the hepatocellular carcinoma cell line HepG2, and the mouse embryonic fibroblast cell line NIH 3T3 were obtained from the Experimental Animal Center of Sun Yat-Sen University (Guangzhou, China). […] Cell passage experiments were performed with trypsin every 2 days to maintain exponential growth. All cells were cultured until they reached logarithmic growth phase, unless specifically noted. Cell cytotoxicity following treatment with the iridium(III) complexes was detected by MTT assay. The cells were seeded into 96-well micro-assay culture plates (1 × 10^4 cells per well) and grown overnight in a 5% CO2 incubator at 37 °C. Then, the cell lines were treated with gradient concentrations of the complexes 1–3. After treatment for 48 h, MTT solution (5 mg mL^−1, […]) dissolved in phosphate buffer was added to each well and the cells were further cultured for 4 h. […] The absorbance of each well was measured with a microplate reader at a wavelength of 490 nm. The IC50 values were determined from the plots of viability versus concentration used to treat the cells. Three independent experiments were performed to obtain the mean values.

HeLa cells = experiment: MTT cytotoxicity assay, HeLa; assay type: cell-based, human; details: 48 h, read-out: IC50 toward HeLa
Excerpt: as §1, §2

BEL-7402 cells = experiment: MTT cytotoxicity assay, BEL-7402; assay type: cell-based, human; details: read-out: IC50 toward BEL-7402
Excerpt: as §1, §2

NIH 3T3 cells = experiment: MTT cytotoxicity assay, normal NIH 3T3; assay type: cell-based, mouse; details: Mus musculus, NIH3T3, 48 h, read-out: IC50 toward NIH 3T3
Excerpt: as §1, §2

SGC-7901 cells [2] = experiment: Mitochondrial membrane potential assay with JC-1; assay type: cell-based, human; details: substance alone: 4.0 µM 1, 15.0 µM 2, 15.0 µM 3, CCCP or NAC; 24 h; control 12.03
Procedure: The SGC-7901 cells were seeded into a 12-well plate at a density of 1.5 × 10^5 cells per well and incubated to attach at 37 °C in 5% CO2. Overnight, the cells were treated with complexes 1–3 for 24 h. CCCP was used as a positive control. Then, the cells were incubated with JC-1 for 30 min at room temperature, after which the remaining dye was washed away with PBS. The samples were then observed under the ImageXpress Micro XLS system and flow cytometry was employed to quantify the fluorescence intensity.

N.N.[Cl][Pt][Cl] [Cisplatin, reference compound]
IC50 (A549 cells; 48 h): 7.5 ± 1.3 µM | IC50 (HepG2 cells; 48 h): 12.5 ± 1.5 µM | IC50 (SGC-7901 cells [1]; 48 h): 3.6 ± 0.5 µM | IC50 (Eca-109 cells): 11.2 ± 0.6 µM | IC50 (HeLa cells): 7 ± 1 µM | IC50 (BEL-7402 cells; 48 h): 10.8 ± 1.6 µM

Nc1c(N)c2cccnc2c2ncccc12 [DAP, 5,6-diamino-phenanthroline]
IC50 (A549 cells; Homo sapiens, A549, 48 h): 5 ± 0.3 µM | IC50 (NIH 3T3 cells): 12.3 ± 0.8 µM | IC50 (HepG2 cells; Homo sapiens, HepG2, 48 h): 4.6 ± 0.8 µM | IC50 (SGC-7901 cells [1]; Homo sapiens, SGC-7901, 48 h): 15.8 ± 2.8 µM | IC50 (HeLa cells; Homo sapiens, HeLa): 9.2 ± 1 µM | IC50 (BEL-7402 cells; Homo sapiens, Bel-7402, 48 h): 37.4 ± 3.2 µM

CC(=O)N[C@@H](CS)C(=O)O [NAC, N-acetylcysteine, reference compound]
Ratio of red/green JC-1 fluorescence intensity (R) (SGC-7901 cells [2]): 19.40

Nc1c([N+](=O)[O-])c2cccnc2c2ncccc12 [NAP, 5-nitro-6-amino-phenanthroline]
IC50 (A549 cells; Homo sapiens, A549, 48 h): 42.7 ± 2.1 µM | IC50 (NIH 3T3 cells): 61.9 ± 1.9 µM | IC50 (HepG2 cells; Homo sapiens, HepG2, 48 h): 56 ± 1.9 µM | IC50 (SGC-7901 cells [1]; Homo sapiens, SGC-7901, 48 h): 90.9 ± 7.4 µM | IC50 (HeLa cells; Homo sapiens, HeLa): 45.8 ± 4 µM | IC50 (BEL-7402 cells; Homo sapiens, Bel-7402, 48 h): 21.1 ± 0.8 µM

O=[N+]([O-])c1cc2cccnc2c2ncccc12 [NP, 5-nitrophenanthroline]
IC50 (A549 cells; Homo sapiens, A549, 48 h): 11.1 ± 0.7 µM | IC50 (NIH 3T3 cells): > 200 µM | IC50 (HepG2 cells; Homo sapiens, HepG2, 48 h): 16.7 ± 0.5 µM | IC50 (SGC-7901 cells [1]; Homo sapiens, SGC-7901, 48 h): 18.4 ± 0.1 µM | IC50 (HeLa cells; Homo sapiens, HeLa): 18.1 ± 1.7 µM | IC50 (BEL-7402 cells; Homo sapiens, Bel-7402, 48 h): 23.5 ± 1.1 µM
